Where “and” joins values, the source holds several entries; their conditions need not be identical. Equal entries are not always repeated.
Legend:
[1] = tested on: IHH (human hepatocytes cell line); assay: Cell viability, IHH; format: cell-based; settings: IHH cells
Procedure: (§1) In order to evaluate the therapeutic efficacy and potential cytotoxicity of the glycoconjugated drug of the invention for the treatment of HCC, cell viability assays were carried out in different cell lines. Chemiograms were performed using increasing doses of the compound 4-MU as well as the glycosylated compound 4MUR (0-2000 μM). Cell viability was measured by using the CellTiter kit (Promega Corporation). Proliferation was measured through a tritiated thymidine incorporation assay, by incubating the cells for 48 h with either one of the compounds (4MU/4MUR) or culture medium (RPMI) in the presence of 3H-thymidine (Migliore-LaClaustra).

HAS2 [2] = assay: HAS2 mRNA expression (RT-qPCR), Huh7; format: cell-based, human; settings: Huh7 cells
Procedure: (§2) Since HAS mRNA levels often correspond to the activity of hyaluronan synthesis, the effect of 4MUR on HAS2 and HAS3 expression was assessed. To this end, cells with a concentration of 100,000 cells/ml were cultured on 6-well plates and treated with 4MUR (500 μM) for 24 h. Total RNA was extracted using the TriReagent (Sigma Aldrich) according to the manufacture's protocol. RNA was quantified at 260 nm in a DU®730 spectrophotometer (Beckman Coulter, Fullerton, CA, USA). The RNA purity was evaluated according to MIQE guidelines by measuring the ratio A260/A280. […] RT-qPCR for HAS2, HAS3 genes was performed using iQ SYBR Green Supermix protocol (Bio-Rad Laboratories, Milan, Italy). Each PCR amplification was carried out following manufactures instructions (iQ SYBR Green Supermix-Bio-Rad) in a Bio-Rad iQ5 real-time PCR detection system (iCycler IQ5 software, version 3.1; Bio-Rad) Expression was normalized to actin with two reference genes.

HAS3 [3] = assay: HAS3 mRNA expression (RT-qPCR), CFSC-2G; format: cell-based, rat; settings: CFSC-2G cells
Procedure: as §2

Toxicity study in mice = format: in vivo, C3Hj mice; settings: for animal body weight: more than 20 days
Procedure: In order to evaluate the toxicity of the compound of the invention, an in vivo assay with mice was carried out. Animals treated with 4MUR were kept healthy during all the experimental protocol.
Briefly, C3Hj mice untreated (n=4) or treated with 4MU (n=4) or 4MUR (n=5) were used to assess its toxicology profile. Mice weight was supervised for more than 20 days. At the end of the experiments, healthy mice or mice receiving 4MU/4MUR were sacrificed to collect liver, spleen, heart, lung, and kidney samples. Tissue sections from liver, spleen, heart, and lungs were paraffin-embedded and H&E staining procedure was performed using standard protocols.

[4] = tested on: CFSC-2G (Rat hepatic stellate cell line); assay: Cell viability, CFSC-2G; format: cell-based; settings: CFSC-2G cells
Procedure: as §1

Hepa129 cells [5] = assay: Proliferation by 3H-thymidine incorporation, Hepa129; format: cell-based, murine; settings: for dose at which proliferation was significantly decreased: Hepa129, 48 h, 3H-thymidine
Procedure: Chemiograms were performed using increasing doses of the compound 4-MU as well as the glycosylated compound 4MUR (0-2000 μM). Cell viability was measured by using the CellTiter kit (Promega Corporation). Proliferation was measured through a tritiated thymidine incorporation assay, by incubating the cells for 48 h with either one of the compounds (4MU/4MUR) or culture medium (RPMI) in the presence of 3H-thymidine (Migliore-LaClaustra). After incubation, cells were harvested and centrifuged to remove ^3H-thymidine from the supernatant. The cell pellet was lysed with sterile distilled water (200 μl) and said volume was added to paper filters for retaining cell DNA with incorporated ^3H-thymidine. Each paper filter was impregnated in a tube containing scintillation liquid and each sample was run and read using a liquid scintillator counter (Beckman) detecting […] per minute emitted by tritium (^3H). Results are expressed as counts per minute (cpm) for each sample. Proliferation capacity of murine Hepa129 cells treated with 4MU and 4MUR was evaluated, as measured by ^3H-thymidine incorporation.

HA in CFSC-2G cells = assay: HA content by flow cytometry, CFSC-2G; format: cell-based, rat; settings: 0.25-1 mM, 48 h
Procedure: The levels of HA were quantified in the activated stellate cells CFSC-2G. For this goal, HA was detected by incubation with HA-fluorescein iso-thiocyanate (FITC) (20 μg/100 μL, Calbiochem SA, Bs. As., Argentina). Cells were treated with 4MU or 4MUR 0.25-1 mM and fixed were analyzed by flow cytometry with a FACS Accuri, BD (Becton Dickinson Immunocytometry Systems), using the BD Accuri 6C™ software.

[6] = tested on: Huh7 (human hepatic cell line); assay: Cell viability (CellTiter), Huh7; format: cell-based; settings: for IC50: Huh7 cells
Procedure: as §1, with “lines. To this end, an in vitro model was designed. The cells used for in vitro assay were a murine hepatic cell line (Hepa1-6) and a human hepatic cell line (Huh7).” for “lines.”

HAS2 [7] = assay: HAS2 mRNA expression (RT-qPCR), CFSC-2G; format: cell-based, rat; settings: CFSC-2G cells
Procedure: as §2

[8] = tested on: orthotopic Hepa129 tumors; assay: Orthotopic hepatocellular carcinoma model associated with advanced fibrosis induced by TAA; format: in vivo, C3H/He mice; settings: for tumor volume: 20 mg/Kg i.p. 3 times a week, day 21 post Hepa129 inoculation; for animals in which tumors were not detected macroscopically: day 21 post-Hepa129; for animal survival: Day 20, FIG. 12C; for fibrosis degree measured by collagen deposits (Sirius red): liver sections
Procedure: To assess the in vivo antitumoral efficacy of 4MUR, an orthotopic tumor model associated with advanced fibrosis induced by TAA was established
C3H/He mice were intraperitoneally (i.p.) treated with 20 mg/kg thioacetamide (TAA) 3 times a week, for 4 weeks, in order to induce liver fibrosis. On day 28, mice were anesthetized and underwent surgery and orthotopic tumors were established by subcapsular intrahepatic inoculation of 1.25×10^5 Hepa129 cells into the left lobe of the liver (Day 0).
Between day 5 and day 7 post-administration of the cells, animals were again subjected to surgery for observing tumor development. Mice were divided into 3 groups (n=5) and each group received: (1) Saline solution (control); (2) 4MU dissolved in water, at a dose of 20 mg/Kg; (3) 4MUR dissolved in water at a dose of 20 mg/Kg. Intraperitoneal administration for different groups began on day 5 and was performed 3 times a week, until the end of the experiment on day 21 post Hepa129 inoculation. On day 21, animals were sacrificed, mice weight was recorded and ascites grade (mild, moderated, severe, and hemorrhagic), as well as tumor volume (mm^3), was calculated by the formula π/6×larger diameter×(smaller diameter)^2, by caliber measurement.
The 4MUR treatment on liver fibrogenesis was evaluated in the animal model. […] To assess the extent of liver fibrosis, formalin-fixed liver samples were embedded in paraffin and 5 μm sections were stained by Sirius Red for detection of fibrillar collagen. Quantitative analysis of Sirius red stained area was performed by computerized morphometric analysis. About 50 light microscope images (100× magnification) per specimen were captured and analyzed using the color threshold detection system developed in ImageJ software (NIH, USA). The results were expressed as percentage of positive area. Collagen deposition was quantified by morphometric analysis and densitometry.
To further understand the 4MUR effect on HCC, HA expression was evaluated in liver tissue sections of mice from the different groups by staining with an HA-binding protein (HA-BP). Negative controls were stained with bHA-BP and pretreated with 100 U/ml Streptomyces hyaluronidase (#385931, Calbiochem) at 37° C. for 30 min. Peroxidase complex (Sigma) 1:10 in PBS was used for developing. The signal was detected by 0.1% diaminobenzidine (Sigma-Aldrich, Buenos Aires, Argentina), 4% glucose, 0.08% ClNH4, 5% nickel ammonium sulfate in 0.2 M AcNa and 0.05% H2O2.

HA in Hepa129 cells = assay: HA content by flow cytometry, Hepa129; format: cell-based, murine; settings: 48 h
Hepa129 cells [9] = assay: Apoptosis by acridine orange/ethidium bromide staining, Hepa129; format: cell-based, murine; settings: 48h; for induction of apoptosis: Hepa129, 0.1 mM; for cells showing death by apoptosis: Hepa129, 1 mM
Procedure: On the other hand, it was examined if growth inhibition by 4MUR was due to induction of apoptosis. To this end, cells were stained with an orange solution of acridine-ethidium bromide (Acridine Orange (NA)/Ethidium Bromide (BrEt) staining) and were then visualized by fluorescence microscopy to analyze their morphological characteristics. Briefly, after 48h of treatment, the cells were incubated with a mixture of NA/BrEt (1 ug/ml) and were then observed under a fluorescence microscope (Nikon). Viable cells are permeable to NA and are stained green. Cells with an altered plasma membrane allow BrEt to enter, which displaces NA, staining the cell orange. The percentage of viable or apoptotic cells was counted for each treatment.

HAS3 [10] = assay: HAS3 mRNA expression (RT-qPCR), Huh7; format: cell-based, human; settings: Huh7 cells
Procedure: as §2

[11] = tested on: α-SMA, TGF-β, COL1A2, TIMP-1, MMP-9 in CFSC-2G cells; assay: Fibrotic-related gene expression by qPCR, CFSC-2G; format: cell-based, rat; settings: 48 h
Procedure: The effect of 4MUR on liver fibrogenesis was assessed by the expression of the fibrotic-related genes including α-SMA, TGF-β, profibrogenic (COL1A2 and TIMP-1), and the antifibrogenic gene matrix metalloproteinase (MMP-9) on CFSC-2G cells by qPCR.

[12] = tested on: Hepa1-6 (murine hepatic cell line); assay: Cell viability, Hepa1-6; format: cell-based; settings: Hepa 1.6 cells, compared with 4-MU
Procedure: In order to evaluate the therapeutic efficacy and potential cytotoxicity of the glycoconjugated drug of the invention for the treatment of HCC, cell viability assays were carried out in different cell lines.
To this end, an in vitro model was designed. The cells used for in vitro assay were a murine hepatic cell line (Hepa1-6) and a human hepatic cell line (Huh7).
as §1, with “Chemiograms” for “In order to evaluate the therapeutic efficacy and potential cytotoxicity of the glycoconjugated drug of the invention for the treatment of HCC, cell viability assays were carried out in different cell lines. Chemiograms”

[13] = tested on: orthotopic Hepa129 tumors; assay: Orthotopic hepatocellular carcinoma model associated with advanced fibrosis induced by TAA; format: in vivo, C3H/He mice; settings: oral administration 200 mg/kg/day

With `Cc1cc(=O)oc2cc(O)ccc12` [4MU, 4-Methylumbelliferone, reference compound] the IC50 ([1]; Homo sapiens, Hepatocyte) was 486 µM, the “expression of HAS2” value (HAS2 [2]) was “did not affect” and the HAS3 expression upregulation (HAS3 [3]) was 4.2 fold. The “histology (H&E) of liver, kidney, lungs, spleen, heart” value (Toxicity study in mice) was “no induced tissue damage”, the animal body weight (Toxicity study in mice) was “no significant changes” and the IC50 ([4]; Rattus norvegicus) was 1160 µM. The lowered proliferation (Hepa129 cells [5]; Hepa129, 1 mM) was 50%, the “dose at which proliferation was significantly decreased” value (Hepa129 cells [5]) was 1 mM and the HA level (HA in CFSC-2G cells) was “significantly decreased”. For the same compound, the IC50 ([6]; Homo sapiens, Huh-7) was greater than 2000 µM, the HAS2 upregulation (HAS2 [7]) was “around 5 fold” and the tumor volume [8] was 243.8±94.0 mm^3. For the same compound, the “animals in which tumors were not detected macroscopically” value ([8]; 20 mg/Kg i.p.) was 20%, the animal survival [8] was 66% and 67% and the “fibrosis degree measured by collagen deposits (Sirius red)” value ([8]; 20 mg/Kg i.p.) was 0.53±0.04. The HA contents (HA in Hepa129 cells) was “significantly decreased”, the induction of apoptosis (Hepa129 cells [9]) was “resistant” and the “cells showing death by apoptosis” value (Hepa129 cells [9]) was 60%. The HAS3 up-regulation (HAS3 [10]) was “around 3.5 fold”.

In the case of `Cc1cc(=O)oc2cc(O[C@@H]3O[C@H](CO[C@@H]4O[C@@H](C)[C@H](O)[C@@H](O)[C@H]4O)[C@@H](O)[C@H](O)[C@H]3O)ccc12` [4MUR, 4-methylumbelliferyl-rutinoside], the IC50 [1] is reported as greater than 2000 µM, the “increase of IC50 values of 4MUR compared to 4MU” value [1] is reported as 6.2 fold and the “expression of HAS2” value (HAS2 [2]) is reported as “significantly reduced”. For the same compound, the “HAS3 expression down regulation” value (HAS3 [3]) was 4.5 fold, the “health of animals during the experimental protocol” value (Toxicity study in mice) was “kept healthy” and the “histology (H&E) of liver, kidney, lungs, spleen, heart” value (Toxicity study in mice) was “no induced tissue damage”. The animal body weight (Toxicity study in mice) was “no significant changes”, the COL1A2 expression [11] was “strongly downregulated” and the MMP-9 expression [11] was “not affected”. The TGF-β expression [11] was “strongly downregulated”, the TIMP-1 expression [11] was “strongly downregulated” and the α-SMA expression [11] was “strongly downregulated”. For the same compound, the IC50 [4] was greater than 2000 µM, the “increase of IC50 values of 4MUR compared to 4MU” value [4] was 25.8 fold and the “lower dose for significant decrease of proliferation vs 4MU” value (Hepa129 cells [5]; Hepa129) was 10 times. The “proliferation” value (Hepa129 cells [5]; Hepa129, 1 mM) was “did not proliferate”, the “dose at which proliferation was significantly decreased” value (Hepa129 cells [5]) was 0.1 mM and the HA level (HA in CFSC-2G cells) was “significantly decreased”. For the same compound, the “increase of 4MU antitumoral effect by glycosylation” value ([6]; Huh7, 4MUR compared to 4MU) was 2.2, the IC50 [6] was 488 µM and the HAS2 expression (HAS2 [7]) was “did not affect”. The “HA expression in liver tissue (HA-BP staining)” value ([8]; 20 mg/Kg i.p.) was “remarkable reduction”, the tumor volume [8] was 113.5±77.8 mm^3 and the “animals in which tumors were not detected macroscopically” value ([8]; 20 mg/Kg i.p.) was 60%. The animal survival [8] was 100%, the “amount of ascitic fluid” value ([8]; compared with untreated mice and 4MU) was “significantly reduced” and the “efficacy against hepatocellular carcinoma” value ([8]; i.p. 20 mg/kg/day) was “efficient”. For the same compound, the “fibrosis degree measured by collagen deposits (Sirius red)” value ([8]; 20 mg/Kg i.p.) was 0.21±0.02, the HA contents (HA in Hepa129 cells) was “significantly decreased” and the “in vitro antitumoral effect” value [12] was “significantly higher than 4-MU”. The induction of apoptosis (Hepa129 cells [9]) was “significantly induced apoptosis”, the “cells showing death by apoptosis” value (Hepa129 cells [9]) was 100% and the “efficacy against hepatocellular carcinoma” value [13] was “efficient”. The “expression of HAS3” value (HAS3 [10]) was “significantly reduced”.
